From patent publication US8580321B2, “Method for reducing the effects of chemotherapy using flagellin related polypeptides” (priority 2003, dated 2013) come the findings set out here.

The subject of series [1] is small intestinal epithelium of irradiated mice. As to the kind of experiment: Pathomorphological analysis of small intestine and skin after gamma irradiation. The format is in vivo, mouse. The conditions noted are these: for intestinal morphology 5 days after 14 Gy: pretreated mice, villi/crypt structure; for radiation-induced disappearance of sebaceous glands: skin, 5 days after 14 Gy. Here is the method:
Tissue samples of intestinal mucosa were taken 5 days after 14 Gy irradiation from mice pretreated with flagellin and control mice. Control animals were treated with 5.0 μg/mouse (0.2 mg/kg) bacterial RNA-polymerase. […] Tissue samples (small intestine and skin from the back) were also obtained from mice treated with the AA′ fragment. The results shown in FIG. 17 are areas of typical morphology observed over a set of at least 3 mice.
Flagellin (and CBLB502) may induce NF-κB activity via binding to TLR5. Accordingly, CBLB502-mediated radioprotection may be dependent on the presence and activity of TLR5. MOLF/Ei mice are a known natural model of TLR5 deficiency (Sebastiani G., et. al., Genomics. 2000 Mar. 15; 64(3):230-40). To verify that CBLB502-mediated radioprotection is indeed TLR5-dependent, we tested the protection of small intestine from radiation by CBLB502 in MOLF/Ei and NIH-Swiss mice (FIG. 35). Both strains of mice were given 0.2 mg/kg CBLB502 (AA′) or PBS 0.5 hr before 15 Gy of gamma-irradiation. The samples of small intestine were obtained 4 days after irradiation, stained by hematoxylin-eosin and subjected to pathomorphological analysis.

Series [2] concerns MeI-7, MeI-29, HCT116, HT1080, NKE and MAEC cells. The series can be described thus: Growth inhibition assay after gamma-irradiation in multiple cell lines. The format is cell-based. The following applies: 2 μg/ml, irradiated (10, 15 Gy) or not, 48 hours. The procedure: Based on the results using A549 cells, several additional tumor cell lines (human melanoma MeI-7 and MeI-29, colon cancer HCT116, […] HT1080), immortalized kidney epithelial cells (NKE) and normal mouse aortal endothelial cells (MAEC)) were tested in growth inhibition assay after 10 and 15 Gy of gamma-irradiation, as compared with intact control, with or without pretreatment with CBLB502. Cells were seeded in 96-well plates night before the treatments. CBLB502 (2 μg/ml) was added to the wells 4 hrs, 1 hr or 10 min before irradiation (all points were done in quadruplicate). 48 hours later, methylene blue staining was performed to determine the relative amount of the viable cells in the wells. The percent of growth inhibition was calculated from the OD650 in control non-irradiated wells, taken as 0% inhibition.

The test system of the next series is A549 cells. As to the kind of experiment: Cell growth inhibition assay (methylene blue) after gamma-irradiation, A549. It counts as cell-based, human. The following applies: 2 μg/ml, with or without 7 or 10 Gy, 72 hours. Here is the method:
Tumor cells were seeded in wells of three 96-well plates in 3 different densities (0.5×10^4, 1×10^4 and 2×10^4 cells/well, producing single-cell, spare or semi-contact layer). After cells had attached to plastic, CBLB502 (2 μg/ml) was added to the wells of non-irradiated cells, or 15 min prior to 7 Gy or 10 Gy of gamma-irradiation. Control wells received equal volume of vehicle (PBS). All points were done in quadruplicate. 72 hours after irradiation, medium was replaced with methylene blue in 50%-methanol and the relative numbers of viable cells in wells were measured using spectrophotometer at 650 nm. This experiment was also repeated with fixed dose of 1×10^4 A549 cells/well, CBLB502 was added 1 hour before 5, 10 or 15 Gy of gamma-irradiation (data not shown). We observed a similar effect of flagellin in all tested experiment conditions.

Series [3] deals with NIH3T3-derived sarcoma and B16 melanoma tumors. The series can be described thus: Tumor sensitivity to radiation treatment in syngeneic mouse tumor models. It counts as in vivo. Here is the method:
Left Panel: NIH3T3-derived sarcoma cells were injected s.c. in NIH-Swiss mice. When tumors reached 7-10 mm in diameter, mice received three 4.3 Gy doses of total body irradiation, with or without pretreatment with AA′. […] U/t: untreated; AA′: AA′ with no irradiation; 3×4Gy: irradiation only; 3×4Gy+AA′: AA′ and irradiation. (The shape of curves reflects slow growth of tumors that is a characteristic of this model). […] Right Panel: The experiment was done in the same way with another syngeneic mouse tumor model: B16 melanoma (C57BL6 background). Treatment was applied when tumors reached 4-5 mm in diameter and involved three subsequent 4 Gy doses of total body gamma radiation applied with or without pretreatment with AA′ (30 min. before irradiation, 5 μg/mouse).
The ultimate test of a potential radioprotective agent in cancer treatment is tumor selectivity, its ability to protect normal tissues while providing no or little protection to the tumor. We injected 10 NIH-Swiss mice subcutaneously, in both flanks (20 tumors total), with 2×10^6 cells of syngeneic sarcoma cell line model (NIH3T3-derived and spontaneously transformed sarcoma with p53 inactivated by dominant negative inhibitor GSE56). When tumors reached the size of 5-7 mm in diameter (day 5), the mice were injected subcutaneously with 0.2 mg/kg of AA′ or saline vehicle and irradiated 1 hours later with […] of total-body y-irradiation (3×4.3 Gy=12.9 Gy total dose). Injections and irradiations were done at days 5, 6 and 7.

Series [4] is described as follows: Cisplatinum-induced weight loss in FVB mice. The following applies: CBLB502 0.04 mg/kg s.c. 30 min prior to cisplatinum 10 mg/kg i.p., n=3. The format is in vivo, mouse.
The test system of another series is mice. As to the kind of experiment: Acute toxicity in mice. It counts as in vivo, mouse. The conditions noted are these: s.c. 0.5, 1, 2, 4 and 8 mg/kg, several days after administration. The procedure:
The lethal dose of Salmonella flagellin is between 1 mg/kg (systemic inflammation) and 10 mg/kg (100% lethality). We subcutaneously administered increasing doses of AA′ to mice (4 mice per dose group) at 0.5, 1, 2, 4 and 8 mg/kg. Due to the lower (˜60%) molecular weight, 8 mg/kg of AA′ correspond to a molar-equivalent dose of 13.3 mg/kg of flagellin. […] The reduced toxicity may be sue to the absence of the central pro-inflammatory domain in the AA′ fragment.

The nature of series [5]: Pharmacokinetics: plasma levels by sandwich ELISA. The following applies: ICR mice. The format is in vivo, mouse. Here is the method:
Pharmacokinetic parameters (effective concentration and the duration of drug the presence in the organism) may be important for route, dose and time of drug administration. The pharmacokinetics of CBLB502 (AA′) were thus tested for four common routes of injection: intravenous (i.v.), subcutaneous (s.c.), intraperitoneal (i.p.) or intramuscular (i.m.). A radioprotective dose of CBLB502 (AA′), 0.2 mg/kg, was injected in 12-15 week old ICR mice and plasma samples were collected at the specified times after injection (at least 3 mice/point). The levels of CBLB502 in plasma were measured by sandwich ELISA using known concentrations of CBLB502 spiked in the control ICR plasma for calibration.
For orientation: In an ELISA, binding on a coated surface is turned into a signal by an enzyme label.

Setting [6] is: 0.2 mg/kg 0.5 hr before 15 Gy, samples 4 days after irradiation.

“flagellin: Salmonella dublin FliC flagellin, 505 amino acids, SEQ ID NO: 1; recombinant full-length protein”: in series [1] (i.v. 0.25 mg/kg, 15 Gy, HE stained sections), the “morphology of small intestinal epithelium after 15 Gy” value is reported as “close to normal morphology”. In series [1], the “intestinal morphology 5 days after 14 Gy” value is “near-normal intestinal morphology” and the “radiation-induced disappearance of sebaceous glands” value is reported as “prevented”.
“AA′: flagellin fragment (1-177)-Linker-(402-505), SEQ ID NO: 8”: in series [2], the “effect on tumor cell growth” value is reported as “no or only a slight inhibitory effect”. Further, the “effect on cell numbers” value in the series on A549 cells is recorded as “no or slight effect”. Moreover, in series [3] (3×4.3 Gy with AA′, irradiated-only mice all died by day 18), the “mice cured and surviving radiotherapy plus AA′” value was 100%. In series [3] (AA′ without irradiation), the “tumor growth in unirradiated mice” value was “decrease in the growth rate of tumors”. The “radiation-induced shrinkage of tumors” value in series [3] (s.c. 0.2 mg/kg 1 hour before each of 3 irradiations, sarcoma in NIH-Swiss mice) is listed as “enhanced”. In addition, the “effect on radiosensitivity of tumors” value in series [3] (sarcoma and B16 melanoma) is recorded as “no effect”. Further, in series [1] (setting [6]), the “intestinal morphology after 15 Gy, NIH-Swiss (TLR5 wild type) mice” value is “preservation of intestinal morphology” and the “intestinal morphology after 15 Gy, TLR5-deficient MOLF/Ei mice” value was “no improving effect”. Also, in series [1], the “intestinal morphology 5 days after 14 Gy” value was “near-normal intestinal morphology” and the “radiation-induced disappearance of sebaceous glands” value is “prevented”. The “mean weight loss compared to cisplatinum alone, FVB mice” value in series [4] was “lower mean weight loss”. For the same substance, in the series with mice, the “detrimental effects (mortality, morbidity, systemic inflammation)” value is “no visible detrimental effects”. Besides, the “time with significant (>5 ng/ml) levels in mouse plasma” value in series [5] (0.2 mg/kg intramuscular injection) was more than 3 h. In series [5] (0.2 mg/kg intravenous injection), the “disappearance from the bloodstream” value was “more rapid disappearance”. In addition, the “levels and persistence in plasma by route” value in series [5] (0.2 mg/kg, intramuscular or intraperitoneal injection) was “highest levels and longest persistence”.
